Laboratory results published in patent publication US10799590B2, “Compositions containing a bitter tastant and at least one sophorolipid, and methods of reducing bitter taste attributed to a bitter tastant in an edible composition” (The United States of America, as Represented by the …, priority 2015, dated 2020).

Target: T1, sweet receptor (T1R2+T1R3) (Homo sapiens, UniProt Q7RTX0)
T1 construct: culture human fungiform taste papillae cells retaining their physiological and molecular characteristics; endogenous in cells; host or cells: cultured primary human fungiform taste papillae (HBO) cells
T1 sequence (Q7RTX0 21-852): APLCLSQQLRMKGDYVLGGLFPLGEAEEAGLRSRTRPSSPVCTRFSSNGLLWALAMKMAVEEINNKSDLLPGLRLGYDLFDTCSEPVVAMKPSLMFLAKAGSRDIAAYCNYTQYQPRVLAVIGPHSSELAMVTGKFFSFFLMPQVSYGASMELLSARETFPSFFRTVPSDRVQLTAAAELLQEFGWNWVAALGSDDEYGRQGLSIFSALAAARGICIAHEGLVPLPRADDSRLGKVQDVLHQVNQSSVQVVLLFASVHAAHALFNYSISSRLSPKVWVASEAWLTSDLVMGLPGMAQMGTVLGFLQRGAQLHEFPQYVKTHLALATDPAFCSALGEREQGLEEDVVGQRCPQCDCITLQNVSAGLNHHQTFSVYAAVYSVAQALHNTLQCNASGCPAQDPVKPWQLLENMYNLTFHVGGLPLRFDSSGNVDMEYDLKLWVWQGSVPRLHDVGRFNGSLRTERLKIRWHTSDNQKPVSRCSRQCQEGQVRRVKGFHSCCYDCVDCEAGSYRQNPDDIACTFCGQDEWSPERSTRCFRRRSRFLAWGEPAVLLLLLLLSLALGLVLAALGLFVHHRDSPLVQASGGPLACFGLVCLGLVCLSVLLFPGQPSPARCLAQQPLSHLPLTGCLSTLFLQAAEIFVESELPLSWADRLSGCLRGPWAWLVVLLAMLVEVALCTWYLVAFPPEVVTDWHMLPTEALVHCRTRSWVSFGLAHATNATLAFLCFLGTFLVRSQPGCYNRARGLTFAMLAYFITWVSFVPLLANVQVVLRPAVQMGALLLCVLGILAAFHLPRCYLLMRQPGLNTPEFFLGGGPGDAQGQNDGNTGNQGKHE
T1 sequence (Q8TE23 20-839 partner): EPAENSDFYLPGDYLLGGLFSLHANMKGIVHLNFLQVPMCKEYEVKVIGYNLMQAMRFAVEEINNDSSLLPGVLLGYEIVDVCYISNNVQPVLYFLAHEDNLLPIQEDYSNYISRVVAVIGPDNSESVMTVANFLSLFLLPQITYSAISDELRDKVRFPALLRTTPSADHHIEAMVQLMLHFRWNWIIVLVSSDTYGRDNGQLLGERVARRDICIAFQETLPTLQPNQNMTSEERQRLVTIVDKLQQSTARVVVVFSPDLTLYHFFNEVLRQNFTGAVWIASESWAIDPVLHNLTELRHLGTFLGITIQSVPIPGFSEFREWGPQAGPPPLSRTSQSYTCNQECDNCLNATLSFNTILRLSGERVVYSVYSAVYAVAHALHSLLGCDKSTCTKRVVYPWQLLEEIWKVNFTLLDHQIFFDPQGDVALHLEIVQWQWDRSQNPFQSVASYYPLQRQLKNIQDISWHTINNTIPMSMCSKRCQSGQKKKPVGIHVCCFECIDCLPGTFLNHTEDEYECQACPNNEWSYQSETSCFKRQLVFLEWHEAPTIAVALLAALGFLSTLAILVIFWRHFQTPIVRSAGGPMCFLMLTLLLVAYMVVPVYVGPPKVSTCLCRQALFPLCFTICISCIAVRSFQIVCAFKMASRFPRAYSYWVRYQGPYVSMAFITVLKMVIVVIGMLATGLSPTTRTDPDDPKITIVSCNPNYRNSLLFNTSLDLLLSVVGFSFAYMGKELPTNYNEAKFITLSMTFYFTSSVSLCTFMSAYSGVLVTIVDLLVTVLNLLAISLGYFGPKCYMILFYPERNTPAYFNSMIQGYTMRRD
Experiment: Lactisole sensitivity of sophorolipid-induced calcium responses in cultured HBO cells
Type: cell-based
Conditions: lactisole = T1R3 blocker; C16-SL-responsive cells n=29 (FIG. 4)
Source text: In vitro cell-based assay of sweet property. Establishment and maintenance of cultures of human fungiform taste papillae cells (HBO cells): We previously established the current proprietary protocol (Ozdener, H., et al., Chem. Senses, 31(3): 279-90 (2006); Ozdener, M. H., et al., Chem. Senses, 36(7): 601-12 (2011); Ozdener, H., et al., Isolation and culture of human fungiform taste papillae cells, J. Vis. Exp., 2012 May 17;(63):e3730) which allowed us to culture human fungiform taste papillae cells retaining their physiological and molecular characteristics for more than a year.
The human fungiform taste papillae cells were cultured according to protocols that we have published (Ozdener et al. 2006, Ozdener et al. 2011). […]
Calcium imaging: Cultured taste cells grown for 3-4 days glass coverslips which were loaded for 30-60 min with the calcium sensitive dye fura-2 by incubating the cells in Ringer solution (145 mM NaCl, 5 mM KCl, 1 mM MgCl2, 1 mM CaCl2, 1 mM Na-pyruvate, 20 mM Hepes-Na and Cellobiose 15 mM, pH 7.2 with osmolarity adjusted to 300-310 by 5M NaCl) supplemented with […] (Molecular Probes Inc., Eugene, Oreg.) and 10 mg/ml Pluronic® F127 (Molecular Probes Inc.). […] Stimuli were dissolved in Ringer and then pH and osmolarity readjusted if needed. […]

## OC[C@H]1O[C@@H](O[C@@H]2[C@@H](O)[C@H](O)[C@@H](CO)O[C@H]2O)[C@H](O)[C@@H](O)[C@@H]1O [Sophorose, 2-O-β-D-glucopyranosyl-β-D glucopyranose]
  effect of lactisole on induced Ca responses, lactisole-sensitive HBO cells: lactisole sensitive
